Results on 3 compounds are retold here after US5041567A, “Antibacterial monic acid derivatives” (Beecham Group plc, priority 1982, dated 1991).

For assay [1], the system named is M. suipneumoniae LABER. As to the kind of experiment: MIC against mycoplasma in vitro. It is filed as cell-based. Particulars: Mesomycoplasma hyopneumoniae, 144 h.
Assay [2] relates to M. suipneumoniae ATCC 25095. Briefly: MIC against mycoplasma in vitro. Type of assay: cell-based. Particulars: Mesomycoplasma hyopneumoniae, ATCC25095, 144 h.
Assay [3] concerns M. hyosynoviae ATCC 25591. As to the kind of experiment: MIC against mycoplasma in vitro. Particulars: 144 h; M. hyosynoviae ATCC 25591; 6 days, 37° C.; read-out: MIC. Type of assay: cell-based.
In assay [4] the test system is M. pneumoniae ATCC 15492. Briefly: MIC against mycoplasma in vitro. Type of assay: cell-based. Particulars: Mycoplasmoides pneumoniae, ATCC15492, 144 h.
The test system of assay [5] is E. coli NCTC 10418. As to the kind of experiment: MIC against human bacteria in vitro. It is filed as cell-based. Particulars: Escherichia coli, NCTC10418; E. coli NCTC 10418; agar with 5% chocolated horse blood, 18 hours, 37° C.; read-out: MIC.
The test system of assay [6] is E. coli ESS. As to the kind of experiment: MIC against human bacteria in vitro. It is filed as cell-based. Particulars: Escherichia coli; E. coli ESS; 5% chocolated horse blood agar, 18 hours; read-out: MIC.
Assay [7] relates to Ps. aeruginosa NCTC 10662. As to the kind of experiment: MIC against human bacteria in vitro. It is filed as cell-based. Particulars: Pseudomonas aeruginosa, NCTC10662; Ps. aeruginosa NCTC 10662; 5% chocolated horse blood agar, 18 hours; read-out: MIC.
In assay [8] the test system is Haemophilus influenzae Wy21. Briefly: MIC against human bacteria in vitro. It is filed as cell-based. Particulars: Haemophilus influenzae Wy21; 5% chocolated horse blood agar, 18 hours; read-out: MIC.
The subject of assay [9] is Neisseria catarrhalis 1502. As to the kind of experiment: MIC against human bacteria in vitro. Type of assay: cell-based. Particulars: Neisseria catarrhalis 1502; 5% chocolated horse blood agar, 18 hours; read-out: MIC.
In assay [10] the test system is Bacillus subtilis 6633. Briefly: MIC against human bacteria in vitro. It is filed as cell-based. Particulars: Bacillus subtilis 6633; 5% chocolated horse blood agar, 18 hours; read-out: MIC.
The subject of assay [11] is Corynebacterium xerosis 9755. As to the kind of experiment: MIC against human bacteria in vitro. It is filed as cell-based. Particulars: Corynebacterium xerosis 9755; 5% chocolated horse blood agar, 18 hours; read-out: MIC.
Assay [12] deals with Staph. aureus Russell. As to the kind of experiment: MIC against human bacteria in vitro. Particulars: Staphylococcus aureus; Staph. aureus Russell; 5% chocolated horse blood agar, 18 hours; read-out: MIC. It is filed as cell-based.
Assay [13] concerns Strep. pyogenes R80/421-A. Briefly: MIC against human bacteria in vitro. It is filed as cell-based. Particulars: Streptococcus pyogenes; Strep. pyogenes R80/421-A; 5% chocolated horse blood agar, 18 hours; read-out: MIC.
The test system of assay [14] is Strep. spp. 64/848-C. As to the kind of experiment: MIC against human bacteria in vitro. Particulars: Strep. spp. 64/848-C; 5% chocolated horse blood agar, 18 hours; read-out: MIC. It is filed as cell-based.
For assay [15], the system named is E. coli NCTC 10418. Briefly: MIC against veterinary bacteria in vitro. Particulars: Escherichia coli, NCTC10418, 18 h.
Experimental: (§1) The activity of the compounds of the Examples against various veterinarily important bacteria, was assayed in vitro using two-fold serial dilutions in Diagnostic Sensitivity Test Agar inoculated with 10^4 organisms.
The test system of assay [16] is E. coli E1. As to the kind of experiment: MIC against veterinary bacteria in vitro. Particulars: Escherichia coli, E1, 18 h.
Experimental: as §1
Assay [17] concerns S. dublin S7. Briefly: MIC against veterinary bacteria in vitro. Particulars: Salmonella enterica, S7, 18 h.
Experimental: as §1
For assay [18], the system named is Bord. bronchiseptica B09. As to the kind of experiment: MIC against veterinary bacteria in vitro. Particulars: Bordetella bronchiseptica, B09, 18 h.
Experimental: as §1
Assay [19] deals with Past. multocida PA1. As to the kind of experiment: MIC against veterinary bacteria in vitro. Particulars: Pasteurella multocida, PA1, 18 h.
Experimental: as §1
Assay [20] deals with Past. haemolytica PA5. As to the kind of experiment: MIC against veterinary bacteria in vitro. Particulars: Mannheimia haemolytica, PA5, 18 h.
Experimental: as §1
Assay [21] concerns Strep. uberis SPU1. As to the kind of experiment: MIC against veterinary bacteria in vitro. Particulars: Streptococcus uberis, SPU1, 18 h.
Experimental: as §1
Assay [22] has as its system Strep. agalactiae SPA1. As to the kind of experiment: MIC against veterinary bacteria in vitro. Particulars: Streptococcus agalactiae, SPA1, 18 h.
Experimental: as §1
Where [23] appears, read: M. suipneumoniae ATCC 25095, 6 days, 37° C., read-out: MIC.

Values after ≈ are worked out from the molar mass of the structure shown. Where two headings read alike, the source gives them in different places.

As to `C/C(=C\c1ncc(-c2ccc(C(=O)O)cc2)o1)C[C@@H]1OC[C@H](C[C@@H]2O[C@H]2[C@@H](C)[C@H](C)O)[C@@H](O)[C@H]1O` [Example 17, Sodium 4-[2-(1-normon-2-yl)-5-oxazolyl] benzoate A], the MIC is 2.5 µg/mL in assay [1]; 5 µg/mL in assay [2] (setting [23]); greater than 10 µg/mL in assay [3]; greater than 10 µg/mL in assay [4] (M. pneumoniae ATCC 15492, 6 days, 37° C., read-out: MIC); greater than 64 µg/mL in assay [5]; 16 µg/mL in [6]. Further, the MIC in assay [7] is greater than 64 µg/mL; in assay [8] it was 2 µg/mL; in assay [9], 8 µg/mL; in assay [10], 32 µg/mL; in assay [11], greater than 64 µg/mL; in assay [12], greater than 64 µg/mL. Besides, the MIC in assay [13] was 4 µg/mL; in [14] it was 32 µg/mL; in assay [15] it was greater than 80 µg/mL; in assay [16] it was greater than 80 µg/mL; in assay [17], greater than 80 µg/mL; in [18], 40 µg/mL. In addition, the MIC in assay [19] was 10 µg/mL; in [20] it was greater than 80 µg/mL; in [21], 1.25 µg/mL; in assay [22], 40 µg/mL.

Consider `C/C(=C\c1ncc(-c2ccc(Br)cc2)o1)C[C@@H]1OC[C@H](C[C@@H]2O[C@H]2[C@@H](C)[C@H](C)O)[C@@H](O)[C@H]1O` [Example 18, 5-p-Bromophenyl-2-(1-normon-2-yl) oxazole A], for which the MIC was 0.25 µg/mL (≈ 0.479 µM) in [1]; 0.5 µg/mL (≈ 0.957 µM) in assay [2] (setting [23]); 0.5 µg/mL (≈ 0.957 µM) in assay [3]; 1 µg/mL (≈ 1.91 µM) in [4]; greater than 128 µg/mL in assay [5]; 8 µg/mL (≈ 15.3 µM) in assay [6]. In addition, the MIC was greater than 128 µg/mL in [7]; 4 µg/mL (≈ 7.66 µM) in assay [8]; 4 µg/mL (≈ 7.66 µM) in assay [9]; 1 µg/mL (≈ 1.91 µM) in [10]; greater than 128 µg/mL in assay [11]; 8 µg/mL (≈ 15.3 µM) in assay [12]. Besides, the MIC is 2 µg/mL (≈ 3.83 µM) in assay [13]; 4 µg/mL (≈ 7.66 µM) in [14]; greater than 80 µg/mL in assay [15]; greater than 80 µg/mL in assay [16]; greater than 80 µg/mL in assay [17]; 10 µg/mL (≈ 19.1 µM) in [18]. The MIC is 10 µg/mL (≈ 19.1 µM) in [19], 40 µg/mL (≈ 76.6 µM) in [20], less than 0.039 µg/mL in assay [21] and 0.625 µg/mL (≈ 1.2 µM) in [22].

In the case of `C/C(=C\c1ncc(CCCCCCCCO)o1)C[C@@H]1OC[C@H](C[C@@H]2O[C@H]2[C@@H](C)[C@H](C)O)[C@@H](O)[C@H]1O` [Example 19, 5-(8-Hydroxyoctyl)-2-(1-normon-2-yl) oxazole A], the MIC in [1] is 1 µg/mL (≈ 2.02 µM); in assay [2] it was 1 µg/mL (≈ 2.02 µM); in assay [3], 0.5 µg/mL (≈ 1.01 µM); in assay [4], 1 µg/mL (≈ 2.02 µM); in assay [5], greater than 128 µg/mL; in assay [6], 16 µg/mL (≈ 32.3 µM). For the same compound, the MIC in assay [7] is greater than 128 µg/mL; in assay [8], 4 µg/mL (≈ 8.07 µM); in [10], 4 µg/mL (≈ 8.07 µM); in [11] it was 128 µg/mL (≈ 258 µM); in [12] it was 4 µg/mL (≈ 8.07 µM); in assay [13], 2 µg/mL (≈ 4.04 µM). For the same compound, the MIC in assay [14] is 16 µg/mL (≈ 32.3 µM); in assay [15], greater than 80 µg/mL; in assay [16] it was greater than 80 µg/mL; in [17], greater than 80 µg/mL; in assay [18], 20 µg/mL (≈ 40.4 µM); in assay [20], greater than 80 µg/mL. Besides, the MIC in [21] stood at 0.625 µg/mL (≈ 1.26 µM); in [22] it was 10 µg/mL (≈ 20.2 µM).
